According to patent US8614064B2, “Methods of diagnosing atherosclerosis by measuring ApoCI” (The Johns Hopkins University, priority 2003, dated 2013):

Assays:
ceramide = assay: Anti-ceramide antibody immunofluorescence microscopy in ASMC; type: cell-based, human; conditions: 24 h
Method: FIGS. 4A-4D depict the effect of ApoCI, ApoCI-enriched HDL, and ApoCI-poor HDL on the level of ceramide in ASMC. Confluent ASMC were incubated with ApoCI (2.5 μg/mL) with time (FIG. 4A, upper left) or with ApoCI-enriched HDL (1 μg apoA-I/mL medium) or ApoCI-poor HDL (5 μg apoA-I/mL medium) (FIG. 4B, upper right) for 30 minutes. FIG. 4C: The cells were incubated with ApoCI alone ([…]) for 5 minutes or preincubated with GW4869 (20 μmol/L) for 30 minutes. After addition of ApoCI (2.5 μg/mL), incubation was continued for 6 hours, 12 hours, and 24 hours. After incubation, cells were harvested and the levels of ceramide determined using the diacylglycerol kinase assay. The level of phosphate was measured and the data (mean±SD) were expressed as percentage of the total ceramide present in untreated cells (vehicle DMSO). *P<0.05. In a separate experiment (FIG. 4D, right), confluent cells were grown on cover slips and pretreated with serum-free medium for 30 minutes. The cells were then incubated with vehicle DMSO alone (control), ApoCI (2.5 μg/ML), or ApoCI (2.5 μg/mL) plus the N-SMase inhibitor GW4869 (20 μmol/L) for 24 hours. The cells were then washed, treated with a primary anticeramide antibody, washed with phosphate-buffered saline, and treated with a fluorescein isothiocyanate-conjugated anti-mouse IgG (FIG. 4C, lower panel).

cytochrome c = assay: Cytochrome c release, Western immunoblot with densitometric scanning, ASMC; type: cell-based, human; conditions: 24 h; ApoCI and ApoCIII 2.5 μg/mL, ApoCI-enriched HDL 1 μg apoA-I/mL
Method: FIGS. 5A-5C depict the effect of ApoCI, ApoCIII, ApoCI-enriched HDL, and GW4869 on cytochrome c release in ASMC. After treatment of confluent cells for 24 hours with ApoCI (2.5 μg/mL medium), ApoCIII (2.5 μg/mL medium), or ApoCI-enriched HDL (1 μg apoA-I/mL medium), the cells were lysed. The cell lysate was used as the source of cytochrome c, and the pellet was used as a source of caspase-3. The cell lysates were separated by SDS-polyacrylamide gel electrophoresis, blotted onto nitrocellulose, and cytochrome c detected using a polyclonal antibody against cytochrome c (FIG. 5A, top panel). The gels were then subjected to densitometric scanning (FIG. 5B, middle panel). In a separate experiment (FIG. 5C, right), confluent cells were grown on cover slips and pretreated with serum-free medium for 30 minutes. The cells were then incubated with control medium, ApoCI (2.5 μg/mL medium), TNF-α (20 ng/mL), or ApoCI (2.5 μg/mL)+GW4869 (20 μmol/L) for 24 hours. The cells were then washed, treated with a primary anti-cytochrome c antibody, washed with phosphate-buffered saline, and treated with a fluorescein isothiocyanate-conjugated anti-rabbit IgG (FIG. 5C, lower panel). […]

Row | Compound | effect of GW4869 on ApoCI-induced ceramide immunofluorescence (ceramide; ApoCI 2.5 μg/mL plus GW4869 20 μmol/L) | stimulation of the release of cytochrome c (cytochrome c) [fold] | anti-ceramide immunofluorescence of treated cells (ceramide; ApoCI 2.5 μg/mL, compared with control cells)
1 | O=C(/C=C/c1ccc(/C=C/C(=O)Nc2ccc(C3=NCCN3)cc2)cc1)Nc1ccc(C2=NCCN2)cc1 [GW4869] | eliminated |  | 
2 | ApoCIII: purified human ApoCIII purchased from Academy Bio-Medical Company, used as negative control |  | 2.3 | 
3 | Apolipoprotein C-I (TPDVSSALDKLKEFGNTLEDKARELISRIKQSELSAKMREWFSETFQKVKEKLKIDS; UniProt P02654 27-83, looked up) [ApoCI, 6.6-kDa single-chain plasma protein of 57 amino acids; purified human ApoCI purchased from Academy Bio-Medical Company] |  | 4.1 | reacted strongly
